US10111437B2, “Substituted guanidines as fungicides” (Nippon Soda Co., Ltd., priority 2015, dated 2018)

Assays:
[1] = system: Apple scab fungus (Venturia inaequalis); assay: Apple scab control test (foliar spray on apple seedlings); assay type: in vivo; details: 125 ppm active ingredient, sprayed on apple seedlings (variety Orin) before inoculation, vs untreated
Method: The dilution was sprayed to apple seedlings (variety “Orin”, 3 to 4 leaf stage) grown in clay pots. […] The control value was calculated by the following equation. [formula]

[2] = system: Tomato late blight fungus (Phytophthora infestans); assay: whole plant or invertebrate; assay type: in vivo; details: foliar, 96 h, read-out: control value
[3] = system: cucumber gray mold fungus (Botrytis cinerea); assay: Cucumber gray mold control test (foliar spray on cucumber seedlings); details: in Cucumis sativus, 96 h, read-out: control value

Row | Structure (SMILES) | pest or weed control at 125 ppm [1] [%] | pest or weed control at 125 ppm [2] [%] | pest or weed control at 125 ppm [3] [%]
1 | N=C(N)c1ccc(OCCCN2CCN(CCCOc3ccc(C(=N)N)cc3)C2=N)cc1 [compound 2, 4-[3-[3-[3-(4-carbamimidoylphenoxy)propyl]-2-imino-imidazolidin-1-yl]propoxy]benzamidine] | ≥ 75 | ≥ 75 | ≥ 75
2 | N=C(N)NCCCCCCN1CCN(CCCCCCNC(=N)N)C1=N [compound 4, 1-[6-[3-(6-guanidinohexyl)-2-imino-imidazolidin-1-yl]hexyl]guanidine] | ≥ 75 | – | ≥ 75
3 | N=C(N)NCCCCCCCNC(=N)NCCCCCCCNC(=N)N [compound 12, 1,3-bis(7-guanidinoheptyl)guanidine] | ≥ 75 | – | ≥ 75
4 | N=C(NCCCCCCCOc1ccc(C(=N)N)cc1)NCCCCCCCOc1ccc(C(=N)N)cc1 [compound 14, 4-[7-[[N-[7-(4-carbamimidoylphenoxy)heptyl]carbamimidoyl]amino]heptoxy]benzamidine] | – | – | ≥ 75
5 | N=C(NCCCOc1ccc(C(=N)N)cn1)NCCCOc1ccc(C(=N)N)cn1 [compound 17, 6,6′-((((iminomethylene)bis(azanediyl))bis (propane-3,1-diyl))bis(oxy))dinicotinimidamide] | ≥ 75 | – | ≥ 75
6 | N=C(N)c1ccc(OCCCn2ccn(CCCOc3ccc(C(=N)N)cc3)c2=N)cc1 [compound 20, 4-[3-[3-[3-(4-carbamimidoylphenoxy)propyl]-2-imino-imidazol-1-yl]propoxy]benzamidine] | – | – | ≥ 75
7 | N=C(N)c1ccc(OCCCCn2c(=N)n(CCCCOc3ccc(C(=N)N)cc3)c3ccccc32)cc1 [compound 27, 4-[4-[3-[4-(4-carbamimidoylphenoxy)butyl]-2-imino-benzimidazol-1-yl]butoxy]benzamidine] | ≥ 75 | ≥ 75 | ≥ 75
8 | N=C(N)NCCCCCCCNC(=N)NCCCCOc1ccc(C(=N)N)cc1 [compound 30, 4-[4-[[N-(7-guanidinoheptyl)carbamimidoyl]amino]butoxy]benzamidine] | ≥ 75 | ≥ 75 | ≥ 75
9 | N=C(N)c1ccc(OCCCCn2ccn(CCCCOc3ccc(C(=N)N)cc3)c2=N)cc1 [compound 36, 4-[4-[3-[4-(4-carbamimidoylphenoxy)butyl]-2-imino-imidazol-1-yl]butoxy]benzamidine] | ≥ 75 | ≥ 75 | ≥ 75
10 | N=C(N)c1ccc(OCCCCN2CCN(CCCCOc3ccc(C(=N)N)cc3)C2=N[N+](=O)[O-])cc1 [compound 38, 4-[4-[3-[4-(4-carbamimidoylphenoxy)butyl]-2-nitroimino-imidazolidin-1-yl]butoxy]benzamidine] | ≥ 75 | – | ≥ 75
11 | N=C(N)NCCCCCCCNC(=N)NCCCOc1ccc(C(=N)N)nn1 [compound 44, 6-(3-(3-(7-guanidinoheptyl)guanidino)propoxy) pyridazine-3-carboxamidine] | ≥ 75 | ≥ 75 | ≥ 75
12 | N=C(N)c1ccc(OCCCCn2ccn(CCCCOc3ccc(C(=N)N)cn3)c2=NC(=O)C(F)(F)F)nc1 [compound 46, N-(1,3-bis(4-((5-carbamimidoylpyridin-2-yl)oxy)butyl)-1,3-dihydro-2H-imidazol-2-ylidene)-2,2,2-trifluoroacetamide] | – | – | ≥ 75
13 | N=C(N)c1ccc(OCCCn2ccn(CCCOc3ccc(C(=N)N)cc3Br)c2=N)c(Br)c1 [compound 54, 3-bromo-4-[3-[3-[3-(2-bromo-4-carbamimidoyl-phenoxy)propyl]-2-imino-imidazol-1-yl]propoxy]benzamidine] | – | ≥ 75 | ≥ 75
14 | N=C(N)c1ccc(OCCCNC(=Nc2ccccc2)NCCCOc2ccc(C(=N)N)cc2)cc1 [compound 63, 4-[3-[[N-[3-(4-carbamimidoylphenoxy)propyl]-N′-phenyl-carbamimidoyl]amino]propoxy]benzamidine] | ≥ 75 | – | ≥ 75
15 | N=C(NCCCc1ccc(C(=N)N)cc1)NCCCc1ccc(C(=N)N)cc1 [compound 65, 4-[3-[[N-[3-(4-carbamimidoylphenyl)propyl]carbamimidoyl]amino]propyl]benzamidine] | ≥ 75 | – | ≥ 75
16 | CC(C)(C)OC(=O)NC(=N)c1ccc(OCCn2ccn(CCOc3ccc(C(=N)NC(=O)OC(C)(C)C)cc3)c2=NC(=O)C(F)(F)F)cc1 [compound 73] | ≥ 75 | – | –
17 | N=c1n(CCCOc2ccc(C3=NCCCN3)cc2)ccn1CCCOc1ccc(C2=NCCCN2)cc1 [compound 76] | ≥ 75 | ≥ 75 | ≥ 75
18 | N=C(NCCCOc1ccc(C2=NCCN2)cc1)NCCCOc1ccc(C2=NCCN2)cc1 [compound 78] | ≥ 75 | – | ≥ 75
19 | N=C(NCCCc1cc2cc(C(=N)N)ccc2o1)NCCCc1cc2cc(C(=N)N)ccc2o1 [compound 80] | ≥ 75 | ≥ 75 | ≥ 75
20 | N=C(NCCCOc1ccc(C(=N)N)c(F)c1)NCCCOc1ccc(C(=N)N)c(F)c1 [compound 82] | ≥ 75 | ≥ 75 | ≥ 75
21 | Cc1cc(C(=N)N)ccc1OCCCCNC(=N)NCCCCOc1ccc(C(=N)N)cc1C [compound 84] | ≥ 75 | ≥ 75 | ≥ 75
22 | N=C(NCCCCOc1ccc(C(=N)N)cc1Cl)NCCCCOc1ccc(C(=N)N)cc1Cl [compound 86] | ≥ 75 | ≥ 75 | ≥ 75

Row | Structure (SMILES) | pest or weed control at 125 ppm [1] [%] | pest or weed control at 125 ppm [2] [%] | pest or weed control at 125 ppm [3] [%]
23 | N=C(N)c1ccc(OCCCCCn2ccn(CCCCCOc3ccc(C(=N)N)cc3)c2=N)cc1 [compound 88] | ≥ 75 | ≥ 75 | ≥ 75
24 | N=C(NCCCCCc1nc(C(=N)N)cs1)NCCCOc1ccc(C(=N)N)cc1 [compound 91] | ≥ 75 | ≥ 75 | ≥ 75
25 | N=C(N)c1ccc(OCCCCCn2ccn(CCOc3ccc(C(=N)N)cc3)c2=N)cc1 [compound 93] | ≥ 75 | ≥ 75 | ≥ 75
26 | N=C(N)c1csc(CCCCCn2ccn(CCCCCc3nc(C(=N)N)cs3)c2=N)n1 [compound 95] | ≥ 75 | – | ≥ 75
27 | CNCCNC(=N)c1ccc(OCCCn2ccn(CCCOc3ccc(C(=N)NCCNC)cc3)c2=N)cc1 [compound 97] | ≥ 75 | – | –
28 | N=C(N)c1ccc(OCCCn2ccn(CCCOc3ccc(C(=N)N)cc3Cl)c2=N)c(Cl)c1 [compound 99] | ≥ 75 | ≥ 75 | ≥ 75
29 | CNCCNC(=N)c1ccc(OCCCn2ccn(CCCOc3ccc(C(=N)N)cc3)c2=N)cc1 [compound 101] | ≥ 75 | ≥ 75 | ≥ 75
30 | Cc1c(C)n(CCCCOc2ccc(C(=N)N)cc2)c(=N)n1CCCCOc1ccc(C(=N)N)cc1 [compound 105] | ≥ 75 | ≥ 75 | ≥ 75
31 | CNC(=N)c1ccc(OCCCn2ccn(CCCOc3ccc(C(=N)NC)cc3)c2=N)cc1 [compound 116] | ≥ 75 | ≥ 75 | ≥ 75
32 | CNC(=N)c1ccc(OCCCCn2ccn(CCCCOc3ccc(C(=N)NC)cc3)c2=N)cc1 [compound 118] | ≥ 75 | ≥ 75 | ≥ 75
33 | N=C(N)NCCCCCNC(=N)NCCCOc1ccc(C(=N)N)cc1 [compound 132] | ≥ 75 | ≥ 75 | ≥ 75
34 | N=C(N)NCCCCCCNC(=N)NCCCOc1ccc(C(=N)N)cc1 [compound 134] | ≥ 75 | ≥ 75 | ≥ 75
35 | C/N=C(/NCCCOc1ccc(C(=N)N)cc1)N(C)CCCOc1ccc(C(=N)N)cc1 [compound 138] | ≥ 75 | ≥ 75 | ≥ 75
36 | N=C(N)c1ccc(COCCCn2ccn(CCCOCc3ccc(C(=N)N)cc3)c2=N)cc1 [compound 161] | ≥ 75 | – | ≥ 75
37 | N=C(NCCCOCc1ccc(C(=N)N)cc1)NCCCOCc1ccc(C(=N)N)cc1 [compound 175] | ≥ 75 | – | ≥ 75
38 | N=C(NCCOCc1ccc(C(=N)N)cc1)NCCOCc1ccc(C(=N)N)cc1 [compound 226] | ≥ 75 | – | ≥ 75
39 | N=C(N)NCCCCCCCCNC(=N)NCCOc1ccc(C(=N)N)cc1 [compound 232] | ≥ 75 | ≥ 75 | –
40 | N=C(N)NCCCCCCCCNC(=N)NCCCc1ccc(C2=NCCCN2)cc1 [compound 271] | ≥ 75 | – | –
41 | N=c1[nH]ccn1CCCCCCCCn1ccn(CCCOc2ccc(C3=NCCCN3)cc2)c1=N [compound 283] | ≥ 75 | – | ≥ 75
42 | N=C(N)NCCCCCCCNC(=N)NCCOc1ccc2cc(C3=NCCCN3)ccc2c1 [compound 290] | ≥ 75 | ≥ 75 | –
43 | N=C(NCCCCCCCCNC1=NCCN1)NCCOc1ccc(C2=NCCCN2)cc1 [compound 294] | ≥ 75 | – | –
44 | N=C(NCCCCCCCCNC1=NCCN1)NCCCOc1ccc(C2=NCCCN2)cc1 [compound 296] | ≥ 75 | – | ≥ 75
